Reference: the supplement of paper PMC10307832

What was measured:
Assay in all cases: relative viability (nuclei count vs DMSO), 5 days (fraction); higher = more cells survive
[1] = compound: CN(c1ncccc1CNc1nc(Nc2ccc3c(c2)CC(=O)N3)ncc1C(F)(F)F)S(C)(=O)=O + COc1cc2c(Oc3ccc(NC(=O)C4(C(=O)Nc5ccc(F)cc5)CC4)cc3F)ccnc2cc1OCCCN1CCOCC1 [Foretinib] (partner 0.25 µM)
In short: (§1)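 Relative viability was taken as the ratio of nuclei in treated wells to nuclei in vehicle wells. Lung cancer cell lines in 1536-well plates received compounds by pin tool one day after seeding, either one drug alone or a fixed anchor-drug dose plus five library-drug doses (not always all listed) in √10 steps. Nuclei were counted on 4× images after 5 days of treatment, and values are medians of duplicate plates.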

[2] = compound: CN(c1ncccc1CNc1nc(Nc2ccc3c(c2)CC(=O)N3)ncc1C(F)(F)F)S(C)(=O)=O + Cc1cc(Nc2cc(N3CCN(C)CC3)nc(Sc3ccc(NC(=O)C4CC4)cc3)n2)n[nH]1 [Tozasertib] (partner 0.1 µM)
In short: as §1

[3] = compound: CN(c1ncccc1CNc1nc(Nc2ccc3c(c2)CC(=O)N3)ncc1C(F)(F)F)S(C)(=O)=O + CCNC(=O)c1noc(-c2cc(C(C)C)c(O)cc2O)c1-c1ccc(CN2CCOCC2)cc1 [Luminespib] (partner 0.01 µM)
In short: as §1

[4] = compound: CN(c1ncccc1CNc1nc(Nc2ccc3c(c2)CC(=O)N3)ncc1C(F)(F)F)S(C)(=O)=O + NC(=O)Nc1cc(-c2cccc(F)c2)sc1C(=O)N[C@H]1CCCNC1 [AZD7762] (partner 0.2 µM)
In short: as §1

Cell Line | relative viability ([1]; first compound 0.01 µM) | relative viability ([1]; first compound 0.03162 µM) | relative viability ([1]; first compound 0.1 µM) | relative viability ([1]; first compound 0.3162 µM) | relative viability ([1]; first compound 1 µM) | relative viability ([2]; first compound 0.01 µM) | relative viability ([2]; first compound 0.03162 µM) | relative viability ([2]; first compound 0.1 µM) | relative viability ([2]; first compound 0.3162 µM) | relative viability ([2]; first compound 1 µM) | relative viability ([3]; first compound 0.01 µM) | relative viability ([3]; first compound 0.03162 µM) | relative viability ([3]; first compound 0.1 µM) | relative viability ([3]; first compound 0.3162 µM) | relative viability ([3]; first compound 1 µM) | relative viability ([4]; first compound 0.01 µM) | relative viability ([4]; first compound 0.03162 µM) | relative viability ([4]; first compound 0.1 µM) | relative viability ([4]; first compound 0.3162 µM) | relative viability ([4]; first compound 1 µM)
201T | 1.06 | 1.09 | 1.09 | 0.928 | 1.02 | 0.921 | 1 | 0.912 | 0.845 | 0.894 | 1.05 | 1 | 0.945 | 0.986 | 0.951 | 0.617 | 0.582 | 0.688 | 0.654 | 0.604
A-427 | 1.04 | 1.18 | 1.01 | 1.16 | 1.07 | 0.223 | 0.191 | 0.207 | 0.186 | 0.211 | 0.908 | 1.1 | 0.832 | 0.921 | 0.905 | 0.798 | 0.81 | 0.874 | 1.14 | 0.907
ABC-1 | 1.11 | 1.2 | 1.01 | 0.92 | 0.936 | 0.173 | 0.161 | 0.158 | 0.137 | 0.172 | 0.557 | 0.985 | 0.511 | 0.524 | 0.516 | 0.838 | 0.86 | 0.825 | 0.803 | 1.08
BEN | 0.815 | 0.608 | 0.618 | 0.587 | 0.845 | 0.416 | 0.562 | 0.506 | 0.541 | 0.471 | 0.392 | 0.313 | 0.863 | 0.289 | 0.328 | 0.721 | 0.709 | 0.73 | 0.774 | 0.563
CAL-12T | 1.32 | 1.2 | 1.1 | 1.1 | 0.838 | 0.271 | 0.249 | 0.274 | 0.271 | 0.209 | 0.284 | 0.55 | 0.451 | 0.258 | 0.277 | 0.677 | 0.603 | 0.559 | 0.647 | 0.633
ChaGo-K-1 | 0.968 | 0.894 | 0.946 | 0.935 | 0.782 | 0.233 | 0.231 | 0.223 | 0.236 | 0.205 | 0.479 | 0.629 | 0.635 | 0.706 | 0.556 | 0.932 | 0.856 | 0.873 | 0.917 | 0.853
EKVX | 0.815 | 0.924 | 1.15 | 0.741 | 0.802 | 0.456 | 0.428 | 0.454 | 0.339 | 0.316 | 0.923 | 1.03 | 0.839 | 0.869 | 0.786 | 0.723 | 0.676 | 0.747 | 0.838 | 0.748
EMC-BAC-2 | 0.933 | 1.18 | 0.989 | 0.944 | 0.943 | 0.302 | 0.283 | 0.287 | 0.255 | 0.246 | 1.16 | 1.27 | 1.17 | 1.16 | 0.994 | 1.17 | 1.08 | 1.1 | 1.11 | 1.14
EPLC-272H | 0.569 | 0.776 | 0.727 | 0.844 | 0.69 | 0.346 | 0.234 | 0.314 | 0.278 | 0.182 | 0.6 | 0.487 | 0.265 | 0.317 | 0.251 | 0.273 | 0.174 | 0.211 | 0.331 | 0.291
H3255 | 0.88 | 0.818 | 0.867 | 0.981 | 0.769 | 0.808 | 0.599 | 0.775 | 0.571 | 0.51 | 1.03 | 0.963 | 0.796 | 0.933 | 0.904 | 0.938 | 0.871 | 0.935 | 0.934 | 0.81
HARA | 1.06 | 0.864 | 0.905 | 0.871 | 0.664 | 0.11 | 0.117 | 0.116 | 0.0944 | 0.0785 | 0.589 | 0.887 | 0.602 | 0.606 | 0.549 | 0.49 | 0.351 | 0.368 | 0.355 | 0.455
HCC-15 | 0.968 | 1.06 | 0.963 | 0.951 | 0.916 | 0.418 | 0.555 | 0.44 | 0.32 | 0.254 | 0.543 | 0.456 | 0.349 | 0.407 | 0.301 | 1.31 | 1.39 | 1.04 | 1.23 | 1.21
HCC-827 | 0.985 | 1.05 | 1.15 | 1.04 | 1.05 | 0.372 | 0.455 | 0.401 | 0.436 | 0.43 | 0.346 | 0.612 | 0.595 | 1.02 | 0.629 | 0.202 | 0.227 | 0.25 | 0.284 | 0.331
HOP-62 | 1.04 | 1.16 | 0.958 | 1.02 | 1.03 | 0.408 | 0.42 | 0.391 | 0.318 | 0.262 | 0.969 | 0.933 | 0.949 | 0.932 | 0.699 | 0.742 | 0.776 | 0.531 | 0.75 | 0.628
NCI-H522 | – | – | – | – | – | 0.542 | 0.447 | 0.469 | 0.511 | 0.61 | 1.17 | 1.2 | 1.17 | 1.14 | 1.15 | 0.798 | 0.979 | 0.737 | 0.87 | 0.764
